Laboratory results taken from article PMC2813186 (Biochemistry, 2009).
pIC50: −log10 of the molar value. Values belong to the compound of their own block, whether it stands above or below them. Ends that are not written are not given here.

What was measured:
[1] = target: T1, Prep (Mus musculus, UniProt Q9QUR6); test: Prep inhibition with CGRP; assay type: biochemical
[2] = tested on: Prep; test: CNS tissue; conditions: WT mice (C57BL/6), up to 4 hours
[3] = tested on: recombinant Prep; test: recombinant Prep; conditions: mouse, 25°C, up to 60 minutes
[4] = target: T1, Prep; test: label-free LC-MS peptidomics of CNS tissues, S17092 versus vehicle treated mice; assay type: in vivo; conditions: S17092 30 mg/kg i.p.

T1 sequence (Q9QUR6 whole entry): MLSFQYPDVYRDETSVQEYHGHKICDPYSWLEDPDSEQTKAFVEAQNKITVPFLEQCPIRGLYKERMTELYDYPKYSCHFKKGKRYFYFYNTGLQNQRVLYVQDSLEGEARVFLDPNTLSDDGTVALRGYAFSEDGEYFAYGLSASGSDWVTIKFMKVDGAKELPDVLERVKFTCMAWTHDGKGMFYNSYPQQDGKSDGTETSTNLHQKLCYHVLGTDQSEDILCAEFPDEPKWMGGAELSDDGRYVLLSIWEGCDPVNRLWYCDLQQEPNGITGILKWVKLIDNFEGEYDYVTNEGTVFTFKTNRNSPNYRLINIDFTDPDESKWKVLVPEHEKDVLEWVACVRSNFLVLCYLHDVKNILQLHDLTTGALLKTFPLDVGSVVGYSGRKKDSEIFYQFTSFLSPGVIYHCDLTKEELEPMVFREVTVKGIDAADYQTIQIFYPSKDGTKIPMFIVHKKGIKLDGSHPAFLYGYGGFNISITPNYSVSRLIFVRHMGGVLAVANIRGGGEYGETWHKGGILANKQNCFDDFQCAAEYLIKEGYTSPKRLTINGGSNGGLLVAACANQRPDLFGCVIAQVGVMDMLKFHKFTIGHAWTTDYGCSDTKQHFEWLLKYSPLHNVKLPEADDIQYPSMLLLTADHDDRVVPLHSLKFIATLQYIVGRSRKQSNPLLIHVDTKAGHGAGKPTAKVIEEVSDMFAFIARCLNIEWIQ

Compound: CC(C)C[C@H](NC(=O)CNC(=O)[C@H](C)NC(=O)[C@H](CC(C)C)NC(=O)[C@H](CCCNC(=N)N)NC(=O)[C@H](Cc1c[nH]cn1)NC(=O)[C@@H](NC(=O)[C@@H](NC(=O)[C@@H]1CSSC[C@H](NC(=O)[C@@H](N)CO)C(=O)N[C@@H](CC(N)=O)C(=O)N[C@@H]([C@@H](C)O)C(=O)N[C@@H](C)C(=O)N[C@@H]([C@@H](C)O)C(=O)N1)C(C)C)[C@@H](C)O)C(=O)N[C@@H](CC(C)C)C(=O)N[C@@H](CO)C(=O)N[C@@H](CCCNC(=N)N)C(=O)N[C@@H](CO)C(=O)NCC(=O)NCC(=O)N[C@H](C(=O)N[C@H](C(=O)N[C@@H](CCCCN)C(=O)N[C@@H](CC(=O)O)C(=O)N[C@@H](CC(N)=O)C(=O)N[C@@H](Cc1ccccc1)C(=O)N[C@H](C(=O)N1CCC[C@H]1C(=O)N[C@H](C(=O)N[C@@H](CC(N)=O)C(=O)N[C@H](C(=O)NCC(=O)N[C@@H](CO)C(=O)N[C@@H](CCC(=O)O)C(=O)N[C@@H](C)C(=O)N[C@@H](Cc1ccccc1)C(N)=O)C(C)C)[C@@H](C)O)C(C)C)C(C)C)C(C)C [CGRP(1–37), calcitonin gene-related peptide]
pIC50 [1]: 5.70

Compound: GGVVKDNFVPTNVGSEAF-NH2 [CGRP(20–37)]
Levels of Prep substrates in the spinal cord 1 hour and 4 hours after i.p. S17092 administration [4]: significantly elevated at 1 hour (gray bar) and 4 hours

Compound: MDELYPMEPEEEANGGEILA
fragment found [2]: Penk(123–133)

More lines, now with the values ahead:

fragment found [2]: Vgf(490–502)
Compound: APPEPVPPPRAAPAPTHV

fragment found [3]: CGRP(30–37)
Compound: GGVVKDNFVPTNVGSEAF-NH2
